PMC12251305 (Molecules, 2025)

Tests used:
DOR [1] = target: T1, DOR (Homo sapiens, UniProt P41143); experiment: [35S]GTPγS functional assay (agonist mode) at DOR; type: biochemical; settings: [35S]GTPγS DOR EC50 ± SEM, agonist mode, standard DPDPE
DOR [2] = target: T1, DOR; experiment: Radioligand competition binding at DOR; settings: read-out: Receptor Binding, Ki ± SEM DOR
C57BL/6J mice [3] = experiment: Locomotor testing (CLAMS); type: in vivo, mouse; settings: 100 nmol i.c.v., 90 min
C57BL/6J mice [4] = experiment: Respiration testing (CLAMS); type: in vivo, mouse; settings: 90 min
[5] = In vivo pharmacokinetic study, intravenous; set-up: species or system Sprague Dawley rats; settings: 5 mg/kg i.v., rat, mean (n = 6) ± SEM
Protocol: In vivo pharmacokinetic study. For the evaluation of the in vivo pharmacokinetic parameters of 22b, a pharmacokinetic study was performed in healthy male adult Sprague Dawley rats with in-dwelling jugular catheters weighing 225 ± 25 g. The animals were housed in single occupancy metabolic cages with mesh flooring and urine and feces receptacles. Six animals were dosed with 5 mg/kg intravenously, and the blood samples were collected at the following time points: pre-dose, 0.083, 0.17, 0.33, 0.50, 0.75, 1, 2, 4, 6, 8, and 10 h post-dose. All samples were stored at −80 °C until they were further analyzed. Collected plasma samples were analyzed using a validated UPLC-MS/MS method, and non-compartmental analysis of the plasma concentration data was performed using Phoenix® 6.4.
Bioanalytical method development and validation. A sensitive, accurate, and robust quantitative liquid chromatography tandem mass spectrometry (LC-MS/MS, Waters Corporation, Milford, MA, USA) method was developed and validated according to the FDA guidelines. Separation was achieved using a Waters Acquity I-Class liquid chromatography system equipped with a binary pump, a degasser, a temperature-controlled autosampler, and a column oven. The analyte was separated via gradient elution utilizing LC-MS grade water and methanol acidified with 0.02% trifluoroacetic acid (TFA, % v/v) through a 2.1 × 50 mm ACQUITY UPLC® CSH C18 column with 1.7 μm particle size (PN 186005296, SN 01463729915172). Mass detection was achieved via Waters Xevo TQS Micro triple quadrupole mass spectrometer in positive electrospray ionization (ESI^+) mode with the multiple reaction monitoring (MRM) function. The method was validated in rat plasma for the linearity range of 1–200 ng/mL. The gradient schematic and fragmentation monitoring parameters are reported in Tables S2 and S3 of the Supporting Information.

hNPFF1-R [6] = target: T2, hNPFF1-R (Homo sapiens, UniProt Q9GZQ6); experiment: Radioligand competition binding at NPFF1-R; settings: read-out: Receptor Binding, Ki ± SEM NPFF1-R
T2 construct: expressed in transfected cells; host or cells: CHO cells

hNPFF2-R [7] = target: T3, hNPFF2-R (Homo sapiens, UniProt Q9Y5X5); experiment: Radioligand competition binding at NPFF2-R; settings: [3H]EYF, transfected CHO cell membranes; read-out: Receptor Binding, Ki ± SEM NPFF2-R
T3 construct: expressed in transfected cells; host or cells: CHO cells (membranes)

C57BL/6J mice [8] = experiment: Excreta assay (intestinal transit); settings: 90 min
KOR [9] = target: T4, KOR (Homo sapiens, UniProt P41145); experiment: biochemical; type: binding
[10] = Metabolic stability in rat liver microsomes; type: in vitro ADME
Protocol: In vitro metabolism of 22b (1 µM) was studied using Sprague Dawley rat liver microsomes (RLM) in a bench-top shaker for 1 h at 37 ± 0.5 °C. An aliquot (2 μL) of the stock solution (250 µM) was spiked in 0.5 mL of pre-incubated metabolic reaction mixture [50 mM Tris buffer (pH 7.4), 0.5 mg protein/mL of RLM, 20 mM magnesium chloride, and 2 mM NADPH]. Verapamil was used as the positive control to ensure the activity of the liver microsomal enzymes, and a metabolic reaction mixture without NADPH was used as the negative control in the same incubation conditions. An aliquot (40 µL) of the reaction mixture was withdrawn at 0, 5, 10, 15, 30, 45, and 60 min and quenched with 200 µL of ice-cold methanol. Samples were vortex-mixed for 2 min, followed by filtration (Multiscreen, Merck Millipore, Ireland) under vacuum. The filtrate was injected onto a UPLC-MS/MS system.
The hepatic elimination rate constant (k) was calculated directly from the slope of the natural logarithm (percent drug remaining) of the concentration vs. the time profile. In vitro half-life (t1/2), intrinsic clearance (CLint), and hepatic clearance (CLint,h) can be calculated from the equations reported in Figure S3 of the Supporting Information, where [V] is the incubation volume in mL and [P] is the amount of microsomal protein in the incubation mixture.

C57BL/6J mice [11] = experiment: Antinociception assay (55 °C warm water tail withdrawal assay); type: in vivo, mouse
MOR [12] = target: T5, MOR (Homo sapiens, UniProt P35372); experiment: Radioligand competition binding at MOR
C57BL/6J mice [13] = experiment: Anti-hyperalgesia assay (48 °C warm water tail withdrawal assay, NPFF-induced hyperalgesia); type: in vivo, mouse
MOR [14] = target: T5, MOR; experiment: [35S]GTPγS functional assay (agonist mode) at MOR; type: biochemical; settings: [35S]GTPγS MOR EC50 ± SEM
C57BL/6J mice [15] = experiment: Acute antinociceptive tolerance assay (55 °C warm water tail withdrawal); type: in vivo, mouse; settings: i.c.v.
KOR [16] = target: T4, KOR; experiment: [35S]GTPγS functional assay (agonist mode) at KOR; type: biochemical; settings: [35S]GTPγS KOR EC50 ± SEM, agonist mode, standard U-69,593
hNPFF1-R [17] = target: T2, hNPFF1-R; settings: inhibition of cAMP production induced by 2 μM forskolin; ref (46); read-out: Functional Activity hNPFF1-R EC50; cited from earlier work
hNPFF2-R [18] = target: T3, hNPFF2-R; set-up: method as in earlier work; settings: inhibition of cAMP production induced by 2 μM forskolin; ref (46); read-out: Functional Activity hNPFF2-R EC50; cited from earlier work
NPFF1-R = settings: read-out: NPFF1-R Ki; Figure 1; ref [29]; cited from earlier work
[19] = male, Sprague Dawley, plasma, iv

T2 sequence (Q9GZQ6 whole entry): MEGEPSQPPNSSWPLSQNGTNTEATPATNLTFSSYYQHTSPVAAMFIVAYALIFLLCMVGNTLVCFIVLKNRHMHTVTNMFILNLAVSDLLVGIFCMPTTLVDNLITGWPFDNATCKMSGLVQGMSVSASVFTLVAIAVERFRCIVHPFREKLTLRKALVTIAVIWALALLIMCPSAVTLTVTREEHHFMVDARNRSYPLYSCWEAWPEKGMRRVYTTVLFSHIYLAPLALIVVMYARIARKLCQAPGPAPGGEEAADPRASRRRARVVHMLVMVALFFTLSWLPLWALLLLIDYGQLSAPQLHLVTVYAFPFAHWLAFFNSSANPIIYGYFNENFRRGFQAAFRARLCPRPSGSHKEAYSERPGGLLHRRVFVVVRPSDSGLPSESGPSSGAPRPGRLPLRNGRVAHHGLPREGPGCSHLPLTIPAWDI
T3 sequence (Q9Y5X5 whole entry): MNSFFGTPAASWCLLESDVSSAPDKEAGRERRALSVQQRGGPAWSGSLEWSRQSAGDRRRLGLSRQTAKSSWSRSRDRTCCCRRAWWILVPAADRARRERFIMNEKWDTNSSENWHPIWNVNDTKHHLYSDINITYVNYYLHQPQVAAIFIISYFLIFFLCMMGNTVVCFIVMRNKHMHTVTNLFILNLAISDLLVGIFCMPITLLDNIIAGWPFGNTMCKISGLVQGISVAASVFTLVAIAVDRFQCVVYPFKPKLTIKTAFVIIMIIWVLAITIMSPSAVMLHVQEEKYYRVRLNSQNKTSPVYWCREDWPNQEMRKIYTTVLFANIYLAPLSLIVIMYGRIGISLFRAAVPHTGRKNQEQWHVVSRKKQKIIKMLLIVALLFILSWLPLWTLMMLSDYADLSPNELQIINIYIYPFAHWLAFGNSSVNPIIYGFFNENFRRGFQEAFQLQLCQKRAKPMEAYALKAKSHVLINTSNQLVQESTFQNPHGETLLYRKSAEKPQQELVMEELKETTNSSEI
T5 sequence (P35372 whole entry): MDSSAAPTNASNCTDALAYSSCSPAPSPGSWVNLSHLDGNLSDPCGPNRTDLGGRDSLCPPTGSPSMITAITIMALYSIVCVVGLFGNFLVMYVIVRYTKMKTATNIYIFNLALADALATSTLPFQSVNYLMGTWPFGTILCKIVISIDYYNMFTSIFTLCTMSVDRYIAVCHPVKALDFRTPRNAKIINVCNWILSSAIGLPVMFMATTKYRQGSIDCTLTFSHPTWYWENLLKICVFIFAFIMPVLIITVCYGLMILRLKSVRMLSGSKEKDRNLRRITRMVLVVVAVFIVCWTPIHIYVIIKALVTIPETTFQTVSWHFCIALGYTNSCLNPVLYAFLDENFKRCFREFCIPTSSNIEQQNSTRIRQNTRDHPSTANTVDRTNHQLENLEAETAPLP
T1 sequence (P41143 whole entry): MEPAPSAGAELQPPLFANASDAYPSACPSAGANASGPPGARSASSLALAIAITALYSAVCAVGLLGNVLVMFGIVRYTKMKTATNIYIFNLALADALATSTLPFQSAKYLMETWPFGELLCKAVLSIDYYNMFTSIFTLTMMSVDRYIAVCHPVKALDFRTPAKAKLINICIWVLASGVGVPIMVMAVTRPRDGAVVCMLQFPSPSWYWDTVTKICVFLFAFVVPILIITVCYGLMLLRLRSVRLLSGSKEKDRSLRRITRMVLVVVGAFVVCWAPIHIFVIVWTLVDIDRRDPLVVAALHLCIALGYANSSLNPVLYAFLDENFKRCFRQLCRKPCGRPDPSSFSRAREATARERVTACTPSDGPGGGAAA
T4 sequence (P41145 whole entry): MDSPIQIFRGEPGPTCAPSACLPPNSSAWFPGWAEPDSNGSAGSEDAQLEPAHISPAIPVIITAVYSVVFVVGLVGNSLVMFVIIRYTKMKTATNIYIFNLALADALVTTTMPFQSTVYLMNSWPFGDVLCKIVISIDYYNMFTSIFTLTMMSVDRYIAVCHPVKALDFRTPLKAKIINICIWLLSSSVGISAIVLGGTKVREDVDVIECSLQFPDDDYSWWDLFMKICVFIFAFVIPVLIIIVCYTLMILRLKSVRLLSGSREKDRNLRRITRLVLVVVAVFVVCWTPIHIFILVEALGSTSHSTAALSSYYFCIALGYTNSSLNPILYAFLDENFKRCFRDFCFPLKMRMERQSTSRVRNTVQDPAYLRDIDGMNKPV

**Q.** With N=C(N)Nc1ccc(C(=C2CCN(Cc3ccccc3)CC2)c2ccccc2)cc1 [Compound 22b, 1-(4-((1-Benzylpiperidin-4-ylidene)(phenyl)methyl)phenyl)guanidine] as the compound, how does the EC50 (DOR [1]) read?
**A.** The EC50 was 539 ± 93.2 nM.

**Q.** And the Ki (DOR [2])?
**A.** Its Ki is 11.4 ± 4.3 nM.

**Q.** What about the “effect on ambulation (spontaneous locomotor activity)” value (C57BL/6J mice [3]) of the same compound?
**A.** The value was “not significantly greater than that of the vehicle”.

**Q.** What about the “effect on respiration rate” value (C57BL/6J mice [4]; 30 nmol i.c.v.) of the same compound?
**A.** Its value is “no marked reduction in respiration”.

**Q.** And the “effect on respiration rate” value (C57BL/6J mice [4]; 100 nmol i.c.v.)?
**A.** Its value is “increased respiration rate”.

**Q.** What about the AUC/dose0_inf [5] of the same compound?
**A.** The AUC/dose0_inf was 3004.7 ± 108.1 ng·h/mL/mg.

**Q.** What about the C0 [5, 19] of the same compound?
**A.** Its C0 is 9150 ± 3740 ng/mL.

**Q.** And the Vd [5, 19]?
**A.** The Vd was 2 ± 0.2 L.

**Q.** And the clearance [5, 19]?
**A.** Its clearance is 5 mL/min.

**Q.** What about the half-life [5, 19] of the same compound?
**A.** Its half-life is 4.1 ± 0.5 h.

**Q.** And the k el ([5]; male, Sprague Dawley, plasma, iv, read-out: k (elimination rate constant) (converted))?
**A.** The k el was 5.56e-05 s⁻¹.

**Q.** And the Ki (hNPFF1-R [6])?
**A.** Its Ki is 929 ± 183 nM.

**Q.** What about the Ki (hNPFF2-R [7]) of the same compound?
**A.** Its Ki is 272 ± 1 nM.

**Q.** And the “number of excreted fecal boli” value (C57BL/6J mice [8]; 30 nmol i.c.v.)?
**A.** The value was 3.5 ± 0.7 boli.

**Q.** And the “number of excreted fecal boli” value (C57BL/6J mice [8]; 100 nmol i.c.v.)?
**A.** Its value is 4.1 ± 0.6 boli.

**Q.** And the Ki (KOR [9])?
**A.** Its Ki is 270 ± 43 nM.

**Q.** What about the “compound remained unchanged after 1 h of incubation” value ([10]; 1 µM, RLM, with NADPH) of the same compound?
**A.** Its value is 25.5%.

**Q.** What about the “stability in negative control reaction mixture” value ([10]; RLM without NADPH) of the same compound?
**A.** The value was “metabolism of the compound was also observed”.

**Q.** And the half-life at 1 µM ([10]; Sprague Dawley, rat, liver microsomes, pH 7.4, 1 µM, RLM, read-out: in vitro half-life)?
**A.** The half-life at 1 µM was 0.517 ± 0.0133 h.

**Q.** What about the “intrinsic clearance (CLint)” value ([10]; pooled rat liver microsomes) of the same compound?
**A.** The value was 0.045 ± 0.001 mL/min per milligram of microsomal protein.

**Q.** What about the “antinociceptive activity over time (screening)” value (C57BL/6J mice [11]; 30 nmol i.c.v., 55 °C) of the same compound?
**A.** The value was “induced the greatest tail withdrawal latencies”.

**Q.** What about the “antinociceptive response after pretreatment with DOR-selective antagonist naltrindole” value (C57BL/6J mice [11]; 22b 30 nmol i.c.v., naltrindole 20 mg/kg i.p. 20 min before, 40 min) of the same compound?
**A.** Its value is “did not alter the antinociceptive response”.

**Q.** What about the “antinociceptive response after pretreatment with KOR-selective antagonist nor-BNI” value (C57BL/6J mice [11]; 22b 30 nmol i.c.v., nor-BNI 10 mg/kg i.p. 24 h before, 40 min) of the same compound?
**A.** The value was “did not alter the antinociceptive response”.

**Q.** What about the “antinociceptive activity after pretreatment with MOR-selective antagonist β-FNA” value (C57BL/6J mice [11]; 22b 30 nmol i.c.v., β-FNA 5 mg/kg s.c. 24 h before, 40 min) of the same compound?
**A.** The value was “almost completely abolished”.

**Q.** What about the ED50 (C57BL/6J mice [11]; Mus musculus, ip, 10 min, i.p., 10 min after administration, 55 °C, read-out: antinociception ED50 (95% confidence interval)) of the same compound?
**A.** Its ED50 is 3.61 mg/kg.

**Q.** And the “antinociception ED50 (95% confidence interval)” value (C57BL/6J mice [11]; i.c.v., 40 min after administration, 55 °C)?
**A.** Its value is 6.88 (4.71–9.47) nmol.

**Q.** What about the “duration of antinociceptive effect” value (C57BL/6J mice [11]; i.p. administration) of the same compound?
**A.** The value was “no more than 50 min”.

**Q.** What about the Ki (MOR [12]) of the same compound?
**A.** The Ki was 428 ± 33 nM.

**Q.** What about the “prevention of NPFF-induced hyperalgesia (screening)” value (C57BL/6J mice [13]; 30 nmol i.c.v. two hours before NPFF 30 nmol i.c.v.) of the same compound?
**A.** Its value is “more moderate, yet still statistically significant, effect”.

**Q.** And the “prevention of NPFF-induced hyperalgesia after peripheral pretreatment” value (C57BL/6J mice [13]; 10 mg/kg i.p. pretreatment, NPFF 30 nmol i.c.v.)?
**A.** Its value is “significant antagonism”.

**Q.** And the EC50 (MOR [14])?
**A.** The EC50 was 576 ± 311 nM.

**Q.** And the “antinociception ED50 (95% CI), second administration” value (C57BL/6J mice [15]; given 8 h after a first dose (morphine 3 nmol, 22b 8.7 nmol), 55 °C)?
**A.** The value was 10.8 (5.89–21.1) nmol.

**Q.** And the “rightward shift of antinociceptive dose response (acute tolerance)” value (C57BL/6J mice [15]; second administration 8 h after first)?
**A.** Its value is 1.6 fold.

**Q.** What about the EC50 (KOR [16]) of the same compound?
**A.** The EC50 was 2710 ± 398 nM.

**Q.** For “1DMe: high-affinity peptidic NPFF receptor ligand (YLFQPQRF)”, which EC50 (hNPFF1-R [17]) is on record?
**A.** Its EC50 is 71 ± 14 nM.

**Q.** What about the EC50 (hNPFF2-R [18]) of the same compound?
**A.** Its EC50 is 2.7 ± 0.5 nM.

**Q.** With N=C(N)NCCNC(=O)C1(Nc2ccccc2)CCN(Cc2ccccc2)CC1 [compound 2] as the compound, how does the Ki (NPFF1-R) read?
**A.** Its Ki is 81 ± 17 nM.
